tested on: muscarinic receptors; experiment: Muscarinic binding: displacement of [3H]N-methylscopolamine, rat frontal cortical membranes; conditions: 10^−6 M test compound, single determination, [3H]N-methylscopolamine
Procedure: Frontal cortical tissue from the brains of male Charles River rats weighing 150-250 g was homogenised in ice-cold 20 mM HEPES buffer, pH 7.5 (measured at 25° C.) containing 100 mM sodium chloride and 10 mM magnesium chloride (1:10 w/v) using a Polytron PT3100 (speed setting 21,700 rpm, 3×5 seconds) and centrifuged at 49,500 g for 30 minutes at 4° C. The supernatant was discarded and the pellet rehomogenised in 20 mM HEPES buffer, pH 7.5 containing 100 mM sodium chloride and 10 mM magnesium chloride (equivalent to 12.5 mg wet weight of tissue/ml). Membranes were stored at −80° C. until required.
Membranes were thawed, diluted 1:10 in ice-cold 20 mM HEPES buffer, pH 7.5 containing 100 mM sodium chloride and 10 mM magnesium chloride and homogenised using a Polytron PT3100 as above. Diluted membranes (200 μl; equivalent to 0.25 mg wet weight of tissue/tube) were incubated with 200 μl of 20 mM HEPES buffer, pH 7.5 containing 100 mM sodium chloride and 10 mM magnesium chloride and 50 μl [^3H]N-methylscopolamine at a single concentration of 0.15 nM and 50 μl distilled water (total binding) or 50 μl test compound (at a single concentration of 10^−6 M or at 10 concentrations ranging from 10^−11-10^−3 M) or 50 μl atropine sulphate (1 μM; non-specific binding) for 30 min at 30° C. Membrane bound radioactivity was recovered by filtration under vacuum through Skatron 11734 filters using a Skatron cell harvester. Filters were rapidly washed with ice-cold 20 mM HEPES buffer, pH 7.5 (wash 1,2 at setting 5,5). The scored filter paper discs were punched out into vials, scintillation fluid added and radioactivity determined by liquid scintillation counting.
For each of these tests measuring the ability of compounds of Formula I to displace standard ligands from 5-HT1A receptors and 5-hydroxytryptamine (5-HT) and noradrenaline (NA) reuptake sites and muscarinic receptors in vitro, the percentage displacement of specific binding of tritiated ligand by 10^−6 M test compound was calculated in the following way.
Firstly, specific binding of tritiated ligand in the absence (A) and presence (B) of test compound was determined:
In the absence of compound: A(dpm)=Total binding (dpm)−Non-specific binding (dpm) In the presence of compound (10^−6 M): B(dpm)=Binding at 10^−6M (dpm)−Non-specific binding (dpm)
The specific binding of tritiated ligand in the presence (B) of compound was then converted to a percentage of specific binding of tritiated ligand in the absence (A) of compound: % Specific binding at 10^−6 M=B(dpm)/A(dpm)×100
The percentage displacement of specific binding of tritiated ligand by the test compound (10^−6 M) was then obtained by subtraction of the percentage specific binding in the presence of compound from the percentage specific binding in the absence of compound, which is taken as the maximum binding and so equals 100%:
% Displacement at 10^−6 M=100−% Specific binding at 10^−6 M.
In some cases, displacement curves were then produced for compounds which displaced ≧50% of specific binding of the tritiated ligand at 10^−6 M using a range of concentrations of the compound. The Ki was then calculated by simultaneous fitting using equations derived from the Feldman equations by robust non-linear regression to data from three experiments simultaneously (De Lean et al., 1978; Munson and Rodbard, 1980; Feldman, 1992). Munson P J and Rodbard D. Ligand: a versatile computerised approach for characterisation of ligand binding systems. Anal Biochem 1980; 107: 220. Feldman HA. Mathematical theory of complex ligand binding systems at equilibrium: some methods for parameter fitting. Anal Biochem 1992: 48, 317. De Lean A, Munson P J and Rodbard D. Simultaneous analysis of families of sigmoidal curves: application to bioassay, radioligand assay, and physiological dose-response curves. Am J Physiol 1978: 235 (2), E97-E102. […]

Muscarinic % displacement at 10^−6 M [%]	Structure (SMILES)
9	Br.CC1=C(c2ccc3ccsc3c2)N2CCN=C2S1 [Example 37, 3-(benzo[b]thiophen-6-yl)-2-methyl-5,6-dihydroimidazo[2,1-b]thiazole hydrobromide]
12	Br.CC1=C(c2ccc(F)c3sccc23)N2CCN=C2S1 [Example 38, 3-(7-fluorobenzo[b]thiophen-4-yl)-2-methyl-5,6-dihydroimidazo[2,1-b]thiazole hydrobromide]

Structure (SMILES)	Muscarinic % displacement at 10^−6 M [%]
CC1=C(c2cccc3sc(C)cc23)N2CCN=C2S1.Cl [Example 33, 2-methyl-3-(2-methylbenzo[b]thiophen-4-yl)-5,6-dihydroimidazo[2,1-b]thiazole hydrochloride]	38

same assay, conditions: [3H]N-methylscopolamine 0.15 nM, rat frontal cortical membranes

Ki [nM]	Structure (SMILES)
76	Br.c1cc(C2=C(C3CC3)SC3=NCCN32)c2ccsc2c1 [Example 34, 3-(benzo[b]thiophen-4-yl)-2-cyclopropyl-5,6-dihydroimidazo[2,1-b]thiazole hydrobromide]
66	Br.C=CCC1=C(c2cccc3sccc23)N2CCN=C2S1 [Example 36, 2-allyl-3-(benzo[b]thiophen-4-yl)-5,6-dihydroimidazo[2,1-b]thiazole hydrobromide]

Structure (SMILES)	Ki [nM]
CC(C)C1=C(c2cccc3sccc23)N2CCN=C2S1.O=C(O)/C=C/C(=O)O [Example 35, 3-(benzo[b]thiophen-4-yl)-2-(1-methylethyl)-5,6-dihydroimidazo[2,1-b]thiazole fumarate]	492

Reference: patent US6900216B2, “Dihydroimidazo[2,1-b]thiazole and dihydro-5h-thiazolo[3,2-A]pyrimidines as antidepressant agents” (Knoll GmbH, priority 2000, dated 2005)
